Measured values taken from patent EP2608671B1, “COMPOUNDS FOR TREATMENT OF CANCER” (Gtx, Inc., priority 2010, dated 2012).
Like-named read-outs stand apart in the source and are kept apart here.

Columns and labels:
A375 = assay: SRB cell growth inhibition (cytotoxicity) assay; assay type: cell-based, human; conditions: Homo sapiens
PPC-1 = assay: cells; conditions: Homo sapiens, PPC-1, 96 h
WM-164 = assay: SRB cell growth inhibition (cytotoxicity) assay; assay type: cell-based, human; conditions: Homo sapiens
LNCaP = assay: cells; conditions: Homo sapiens, 96 h
PC-3 = assay: cells; conditions: Homo sapiens, PC-3, 96 h
Description: (§1) The only compounds which belong to the invention are the ones falling under the scope of formula (XI).
Cells were stained with SRB solution.
Cells. […] Cells between the third and fifth passages were used for experiments.
Cell growth inhibition studies. […] Cells were stained with sulphorhodamine B (SRB) solution.

B16-F1 = assay: SRB cell growth inhibition (cytotoxicity) assay; assay type: cell-based, mouse; conditions: Mus musculus
Description: as §1

DU 145 = assay: cells; conditions: Homo sapiens, DU-145, 96 h
[1] = A-375, A375 melanoma cells, 48 h, SRB, read-out: IC50 ± SEM (nM) A375
[2] = read-out: IC50 ± SEM (nM), PPC-1
[3] = WM164 melanoma cells, 48 h, SRB, read-out: IC50 ± SEM (nM) WM164
[4] = read-out: IC50 ± SEM (nM), LNCaP
[5] = read-out: IC50 ± SEM (nM), PC-3
[6] = B16-F1 melanoma cells, 48 h, SRB, read-out: IC50 ± SEM (nM) B16-F1
[7] = read-out: IC50 ± SEM (nM) Du 145
[8] = A-375, SRB, 48 h, Table 11, read-out: IC50 (nM), A375
[9] = WM164, SRB, 48 h, Tables 11, 12, read-out: IC50 (nM), WM164
[10] = B16-F1, SRB, 48 h, Table 11, read-out: IC50 (nM), B16-F1

Compound | IC50 (A375; [1]) [nM] | IC50 (PPC-1; [2]) [nM] | IC50 (WM-164; [3]) [nM] | IC50 (LNCaP; [4]) [nM] | IC50 (PC-3; [5]) [nM] | IC50 (B16-F1; [6]) [nM] | IC50 (DU 145; [7]) [nM] | IC50 (A375; [8]) [nM] | IC50 (PPC-1; read-out: IC50 (nM), PPC-1) [nM] | IC50 (WM-164; [9]) [nM] | IC50 (LNCaP; read-out: IC50 (nM), LNCaP) [nM] | IC50 (PC-3; read-out: IC50 (nM), PC-3) [nM] | IC50 (B16-F1; [10]) [nM] | IC50 (DU 145; read-out: IC50 (nM), Du 145) [nM] | IC50 (A375; A-375, 48 h, read-out: IC50 ± SEM (nM) A375) [nM] | IC50 (WM-164; WM164, 48 h, read-out: IC50 ± SEM (nM) WM164) [nM] | IC50 (B16-F1; B16-F1, 48 h, read-out: IC50 ± SEM (nM) B16-F1) [nM]
Cc1ccc(-c2nc(C(=O)c3ccc(F)cc3)cn2S(=O)(=O)c2ccccc2)cc1 [11db, (4-fluorophenyl)(1-(phenylsulfonyl)-2-(p-tolyl)-1H-imidazol-4-yl)methanone] | 113 ± 14 | 57 ± 1 | 107 ± 14 | 55 ± 3 | 80 ± 1 | 287 ± 31 | 80 ± 1 | – | – | – | – | – | – | – | – | – | –
COc1cc(C(=O)c2cn(S(=O)(=O)c3ccccc3)c(-c3cc(OC)c(OC)c(OC)c3)n2)cc(OC)c1OC [11ea, (1-(phenylsulfonyl)-2-(3,4,5-trimethoxyphenyl)-1H-imidazol-4-yl)(3,4,5-trimethoxyphenyl)methanone] | > 10000 | > 10000 | > 10000 | > 10000 | > 10000 | > 10000 | > 10000 | – | – | – | – | – | – | – | – | – | –
COc1cc(-c2nc(C(=O)c3ccc(F)cc3)cn2S(=O)(=O)c2ccccc2)cc(OC)c1OC [11eb, (4-fluorophenyl)(1-(phenylsulfonyl)-2-(3,4,5-trimethoxyphenyl)-1H-imidazol-4-yl)methanone] | 3840 | > 10000 | > 10000 | > 10000 | > 10000 | > 10000 | > 10000 | – | – | – | – | – | – | – | – | – | –
COc1cc(C(=O)c2cn(S(=O)(=O)c3ccccc3)c(-c3ccc(N(C)C)cc3)n2)cc(OC)c1OC [11ga, (2-(4-(dimethylamino)phenyl)-1-(phenylsulfonyl)-1H-imidazol-4-yl)(3,4,5-trimethoxyphenyl)methanone] | 162 ± 13 | 72 ± 0.4 | 308 ± 32 | 62 ± 2 | 93 ± 6 | 1200 ± 90 | 99 ± 2 | – | – | – | – | – | – | – | – | – | –
CN(C)c1ccc(-c2nc(C(=O)c3ccc(F)cc3)cn2S(=O)(=O)c2ccccc2)cc1 [11gb, (2-(4-(dimethylamino)phenyl)-1-(phenylsulfonyl)-1H-imidazol-4-yl)(4-fluorophenyl)methanone] | 55 ± 7 | 48 ± 0.3 | 56 ± 4 | 56 ± 6 | 83 ± 3 | 242 ± 26 | 74 ± 0.5 | – | – | – | – | – | – | – | – | – | –
COc1ccc(-c2nc(C(=O)c3cc(OC)c(OC)c(OC)c3)cn2S(=O)(=O)c2ccccc2)cc1OC [11ha, (2-(3,4-dimethoxyphenyl)-1-(phenylsulfonyl)-1H-imidazol-4-yl)(3,4,5-trimethoxyphenyl)methanone] | 192 ± 15 | 117 ± 2 | 139 ± 15 | 114 ± 6 | 197 ± 9 | 970 ± 68 | 144 ± 29 | – | – | – | – | – | – | – | – | – | –
COc1ccc(-c2nc(C(=O)c3ccc(F)cc3)cn2S(=O)(=O)c2ccccc2)cc1OC [11hb, (2-(3,4-dimethoxyphenyl)-1-(phenylsulfonyl)-1H-imidazol-4-yl)(4-fluorophenyl)methanone] | 960 ± 59 | 1440 ± 49 | 1400 ± 30 | 1920 ± 77 | 10000 | 2000 ± 400 | 3310 | – | – | – | – | – | – | – | – | – | –
COc1cc(C(=O)c2cn(S(=O)(=O)c3ccccc3)c(-c3ccccc3C(F)(F)F)n2)cc(OC)c1OC [11ia, (1-(phenylsulfonyl)-2-(2-(trifluoromethyl)phenyl)-1H-imidazol-4-yl)(3,4,5-trimethoxyphenyl)methanone] | > 10000 | > 10000 | > 10000 | > 10000 | > 10000 | > 10000 | > 10000 | – | – | – | – | – | – | – | – | – | –
O=C(c1ccc(F)cc1)c1cn(S(=O)(=O)c2ccccc2)c(-c2ccccc2C(F)(F)F)n1 [11ib, (1-(phenylsulfonyl)-2-(2-(trifluoromethyl)phenyl)-1H-imidazol-4-yl)(4-fluorophenyl)methanone] | > 10000 | > 10000 | > 10000 | > 10000 | > 10000 | > 10000 | > 10000 | – | – | – | – | – | – | – | – | – | –
COc1ccc(C(=O)c2c[nH]c(-c3ccccc3)n2)cc1 [12ab, (4-methoxyphenyl)(2-phenyl-1H-imidazol-4-yl)methanone] | – | – | – | – | – | – | – | > 10000 | > 10000 | > 10000 | > 10000 | > 10000 | > 10000 | > 10000 | – | – | –
COc1cccc(C(=O)c2c[nH]c(-c3ccccc3)n2)c1 [12ac, (3-methoxyphenyl)(2-phenyl-1H-imidazol-4-yl)methanone] | – | – | – | – | – | – | – | > 10000 | > 10000 | > 10000 | > 10000 | > 10000 | > 10000 | > 10000 | – | – | –
COc1cc(OC)cc(C(=O)c2c[nH]c(-c3ccccc3)n2)c1 [12ad, (3,5-dimethoxyphenyl)(2-phenyl-1 H-imidazol-4-yl)methanone] | – | – | – | – | – | – | – | 2800 | 2130 | 2100 | 3610 | 3270 | 5400 | 2590 | – | – | –
O=C(c1ccc(F)cc1)c1c[nH]c(-c2ccccc2)n1 [12af, (4-fluorophenyl)(2-phenyl-1H-imidazol-4-yl)methanone] | – | – | – | – | – | – | – | 580 | 575 | 630 | 613 | 2200 | 930 | 846 | – | – | –
Cc1ccc(C(=O)c2c[nH]c(-c3ccccc3)n2)cc1 [12ah, (2-phenyl-1H-imidazol-4-yl)(p-tolyl)methanone] | – | – | – | – | – | – | – | > 10000 | > 10000 | > 10000 | > 10000 | > 10000 | > 10000 | > 10000 | – | – | –
Cc1cccc(C(=O)c2c[nH]c(-c3ccccc3)n2)c1 [12ai, (2-phenyl-1H-imidazol-4-yl)(m-tolyl)methanone] | – | – | – | – | – | – | – | > 10000 | > 10000 | > 10000 | > 10000 | > 10000 | > 10000 | > 10000 | – | – | –
COc1ccc(-c2nc(C(=O)c3ccc(F)cc3)cn2C)cc1 [12cba, (4-fluorophenyl)(2-(4-methoxyphenyl)-1-methyl-1H-imidazol-4-yl)methanone] | > 10000 | > 10000 | > 10000 | > 10000 | > 10000 | > 10000 | > 10000 | – | – | – | – | – | – | – | – | – | –
COc1cc(C(=O)c2cn(C)c(-c3ccc(C)cc3)n2)cc(OC)c1OC [12dab, (1-methyl-2-(p-tolyl)-1H-imidazol-4-yl)(3,4,5-trimethoxyphenyl)methanone] | – | 28 | – | 32 | 46 | – | 36 | – | – | – | – | – | – | – | 32 | 40 | 134
COc1cc(C(=O)c2c[nH]c(-c3ccc(C)cc3)n2)cc(OC)c1O [12dc, (4-hydroxy-3,5-dimethoxyphenyl)(2-(p-tolyl)-1H-imidazol-4-yl)methanone] | 105 | 110 | 123 | 134 | 127 | 387 | 174 | – | – | – | – | – | – | – | – | – | –
COc1ccc(S(=O)(=O)n2cc(C(=O)c3ccc(F)cc3)nc2-c2ccc(N(C)C)cc2)cc1 [12gba, (2-(4-(dimethylamino)phenyl)-1-((4-methoxyphenyl)sulfonyl)-1H-imidazol-4-yl)(4-fluorophenyl)methanone] | ~100 | 63.4 | ~100 | 73.2 | 44.1 | ~100 | 129 | – | – | – | – | – | – | – | – | – | –
COc1cc(C(=O)c2c[nH]c(-c3ccc(Br)cc3)n2)cc(OC)c1OC [12la, (2-(4-bromophenyl)-1H-imidazol-4-yl)(3,4,5-trimethoxyphenyl)methanone] | 32 | 33 | 36 | 34 | 36 | 74 | 49 | – | – | – | – | – | – | – | – | – | –
COc1cc(C(=O)c2c[nH]c(-c3ccc(C(F)(F)F)cc3)n2)cc(OC)c1OC [12pa, (2-(4-(trifluoromethyl)phenyl)-1H-imidazol-4-yl)(3,4,5-trimethoxyphenyl)methanone] | 163 | 110 | 175 | 134 | 127 | 469 | 174 | – | – | – | – | – | – | – | – | – | –
O=C(c1cc(O)c(O)c(O)c1)c1c[nH]c(-c2cc(O)c(O)c(O)c2)n1 [13ea, (3,4,5-trihydroxyphenyl)(2-(3,4,5-trihydroxyphenyl)-1H-imidazol-4-yl)methanone] | > 10000 | > 10000 | > 10000 | > 10000 | > 10000 | > 10000 | > 10000 | – | – | – | – | – | – | – | – | – | –
